Results published in PubChem BioAssay AID1963974 (Molecular Pharmacology Branch, DTP, NCI, 2024).

Tested on: 648629-189-R-J1-PDC spheroids with HUVEC/MSC, viability
Test: Anticancer human tumor 648629-189-R-J1-PDC patient-derived bladder carcinoma cell line growth inhibition [PI3K]
Conditions: for IC50: curve of first compound; for viability, T/C: stronger effect = lower value; active = viability on the fitted dose curve at most 10% of control; inactive = the rest
Summary of the method: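 Multi-cell spheroids combine tumor cells with HUVEC and human MSCs, treated with targeted agents alone or with inavolisib, alpelisib, duvelisib or copanlisib. Concentrations fall in half-log steps from at or near clinical Cmax, or from 10 microM where Cmax is unknown; viability read-out.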
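Also: spheroids exposed to agents for seven days before reading.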
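For viability, T/C in this document: percent of vehicle control luminescence where 100% = DMSO treated spheroids.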

CCN1CCN(Cc2ccc(Nc3ncc(F)c(-c4cc(F)c5nc(C)n(C(C)C)c5c4)n3)nc2)CC1 + CC(Nc1ccc2c(c1)OCCn1cc(N3C(=O)OCC3C(F)F)nc1-2)C(N)=O
inactive: viability, T/C (second compound 0.00316 µM, first compound 0.00316 µM) 105% | viability, T/C (second compound 0.00316 µM, first compound 0.01 µM) 98.8% | viability, T/C (second compound 0.00316 µM, first compound 0.0316 µM) 105% | viability, T/C (second compound 0.00316 µM, first compound 0.1 µM) 113% | viability, T/C (second compound 0.00316 µM, first compound 0.316 µM) 118% | viability, T/C (second compound 0.00316 µM, first compound 1 µM) 119% | viability, T/C (second compound 0.01 µM, first compound 0.00316 µM) 95.5% | viability, T/C (second compound 0.01 µM, first compound 0.01 µM) 102% | viability, T/C (second compound 0.01 µM, first compound 0.0316 µM) 110% | viability, T/C (second compound 0.01 µM, first compound 0.1 µM) 110% | viability, T/C (second compound 0.01 µM, first compound 0.316 µM) 113% | viability, T/C (second compound 0.01 µM, first compound 1 µM) 107% | viability, T/C (second compound 0.0316 µM, first compound 0.00316 µM) 105% | viability, T/C (second compound 0.0316 µM, first compound 0.01 µM) 99.2% | viability, T/C (second compound 0.0316 µM, first compound 0.0316 µM) 112% | viability, T/C (second compound 0.0316 µM, first compound 0.1 µM) 95.8% | viability, T/C (second compound 0.0316 µM, first compound 0.316 µM) 121% | viability, T/C (second compound 0.0316 µM, first compound 1 µM) 124% | viability, T/C (second compound 0.1 µM, first compound 0.00316 µM) 96.4% | viability, T/C (second compound 0.1 µM, first compound 0.01 µM) 104% | viability, T/C (second compound 0.1 µM, first compound 0.0316 µM) 102% | viability, T/C (second compound 0.1 µM, first compound 0.1 µM) 105% | viability, T/C (second compound 0.1 µM, first compound 0.316 µM) 109% | viability, T/C (second compound 0.1 µM, first compound 1 µM) 103% | viability, T/C (second compound 0.316 µM, first compound 0.00316 µM) 85.5% | viability, T/C (second compound 0.316 µM, first compound 0.01 µM) 82.6% | viability, T/C (second compound 0.316 µM, first compound 0.0316 µM) 99.9% | viability, T/C (second compound 0.316 µM, first compound 0.1 µM) 98.6% | viability, T/C (second compound 0.316 µM, first compound 0.316 µM) 90.7% | viability, T/C (second compound 0.316 µM, first compound 1 µM) 96.9% | viability, T/C (second compound 1 µM, first compound 0.00316 µM) 70.8% | viability, T/C (second compound 1 µM, first compound 0.01 µM) 72.4% | viability, T/C (second compound 1 µM, first compound 0.0316 µM) 64.3% | viability, T/C (second compound 1 µM, first compound 0.1 µM) 73.1% | viability, T/C (second compound 1 µM, first compound 0.316 µM) 87.8% | viability, T/C (second compound 1 µM, first compound 1 µM) 77.8%
> 1000 nM: IC50 (second compound 0.00316 µM) | IC50 (second compound 0.01 µM) | IC50 (second compound 0.0316 µM) | IC50 (second compound 0.1 µM) | IC50 (second compound 0.316 µM) | IC50 (second compound 1 µM)
